{"source": "patent US20120328569A1", "about": "“INHIBITORS OF HEPATITIS C VIRUS NS5B POLYMERASE” (priority 2010, published 2012)"}
{"system": "HCV genotype 1b replicon", "assay": "HCV replicon assay, cell ELISA with antibody to replicon-encoded NS3/4A (genotype 1b replicon)", "format": "cell-based, hepatitis C virus", "settings": "Hepatitis C virus, 96 h, read-out: Replicon 1b IC50 (nM), HCV genotype 1b replicon cells, 96 hours incubation, NS3/4A ELISA readout", "procedure,_shortened": "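An ELISA on lysed cells, using an antibody against NS3/4A protease, served as the proxy for replicon RNA. Cells had first been exposed for 96 h to serially diluted compound in G418-free conditions. Percent of DMSO control was fitted with a four-parameter function to give IC50.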", "units": {"IC50": "nM"}}
{"compound": "CCc1ccc(-c2cc3c(C(=O)NC)c(-c4ccc(F)cc4)oc3cc2N(C)S(C)(=O)=O)cc1", "note": "[Example 110, 5-(4-ethylphenyl)-2-(4-fluorophenyl)-N-methyl-6-[methyl(methylsulfonyl)amino]-1-benzofuran-3-carboxamide]", "IC50": 90}
{"compound": "CNC(=O)c1c(-c2ccc(F)cc2)oc2cc(N(C)S(C)(=O)=O)c(-c3cc(F)cc(F)c3)cc12", "note": "[Example 111, 5-(3,5-difluorophenyl)-2-(4-fluorophenyl)-N-methyl-6-[methyl(methylsulfonyl)amino]-1-benzofuran-3-carboxamide]", "IC50": 40}
{"compound": "CNC(=O)c1c(-c2ccc(F)cc2)oc2cc(N(C)S(C)(=O)=O)c(-c3ccc(-c4ccccc4)cc3)cc12", "note": "[Example 112, 5-(biphenyl-4-yl)-2-(4-fluorophenyl)-N-methyl-6-[methyl(methylsulfonyl)amino]-1-benzofuran-3-carboxamide]", "IC50": "< 8"}
{"compound": "CNC(=O)c1c(-c2ccc(F)cc2)oc2cc(N(C)S(C)(=O)=O)c(-c3ccc(O)cc3)cc12", "note": "[Example 113, 2-(4-fluorophenyl)-5-(4-hydroxyphenyl)-N-methyl-6-[methyl(methylsulfonyl)amino]-1-benzofuran-3-carboxamide]", "IC50": 74}
{"compound": "CNC(=O)c1c(-c2ccc(F)cc2)oc2cc(N(CCNCc3ccccc3)S(C)(=O)=O)c(-c3ccccc3)cc12", "note": "[Example 123, 6-{[2-(benzylamino)ethyl](methylsulfonyl)amino}-2-(4-fluorophenyl)-N-methyl-5-phenyl-1-benzofuran-3-carboxamide]", "IC50": 111}
{"compound": "CNC(=O)c1c(-c2ccc(F)cc2)oc2cc(N(CCN(C)Cc3ccccc3)S(C)(=O)=O)c(-c3ccccc3)cc12", "note": "[Example 124, 6-[{2-[benzyl(methyl)amino]ethyl} (methylsulfonyl)amino]-2-(4-fluorophenyl)-N-methyl-5-phenyl-1-benzofuran-3-carboxamide]", "IC50": "> 10000"}
{"compound": "CNC(=O)c1c(-c2ccc(F)cc2)oc2cc(N(C)S(C)(=O)=O)c(-c3cccc(-c4nc5ccccc5s4)c3)cc12", "note": "[Example 135, 5-(3-(benzo[d]thiazol-2-yl)phenyl)-2-(4-fluorophenyl)-N-methyl-6-(N-methylmethylsulfonamido)-1-benzofuran-3-carboxamide]", "IC50": 4}
{"compound": "CNC(=O)c1c(-c2ccc(F)cc2)oc2cc(N(C)S(C)(=O)=O)c(-c3cccc(-c4cnc(-c5ccccc5)s4)c3)cc12", "note": "[Example 136, 2-(4-fluorophenyl)-N-methyl-6-[methyl (methylsulfonyl)amino]-5-[3-(2-phenyl-1,3-thiazol-5-yl)phenyl]-1-benzofuran-3-carboxamide]", "IC50": 16}
{"compound": "CNC(=O)c1c(-c2ccc(F)cc2)oc2cc(N(C)S(C)(=O)=O)c(-c3cccc(-c4nnc(-c5ccccc5)o4)c3)cc12", "note": "[Example 137, 2-(4-fluorophenyl)-N-methyl-6-[methyl (methylsulfonyl)amino]-5-[3-(5-phenyl-1,3,4-oxadiazol-2-yl)phenyl]-1-benzofuran-3-carboxamide]", "IC50": 6}
{"compound": "CNC(=O)c1c(-c2ccc(F)cc2)oc2cc(N(C)S(C)(=O)=O)c(-c3cccc(-c4noc5ccccc45)c3)cc12", "note": "[Example 138, 5-[3-(1,2-benzisoxazol-3-yl)phenyl]-2-(4-fluorophenyl)-N-methyl-6-[methyl (methylsulfonyl)amino]-1-benzofuran-3-carboxamide]", "IC50": 9}
{"compound": "CNC(=O)c1c(-c2ccc(F)cc2)oc2cc(N(C)S(C)(=O)=O)c(-c3cccc(-c4nnn(Cc5ccccc5)n4)c3)cc12", "note": "[Example 139, 5-[3-(2-benzyl-2H-tetrazol-5-yl)phenyl]-2-(4-fluorophenyl)-N-methyl-6-[methyl (methylsulfonyl)amino]-1-benzofuran-3-carboxamide]", "IC50": 5}
{"compound": "CNC(=O)c1c(-c2ccc(F)cc2)oc2cc(N(C)S(C)(=O)=O)c(-c3cccc(-c4nnn(CC(=O)O)n4)c3)cc12", "note": "[Example 140, [5-(3-{2-(4-fluorophenyl)-3-(methylcarbamoyl)-6-[methyl (methylsulfonyl)amino]-1-benzofuran-5-yl}phenyl)-2H-tetrazol-2-yl]acetic acid]", "IC50": 1190}
{"compound": "CNC(=O)c1c(-c2ccc(F)cc2)oc2cc(N(C)S(C)(=O)=O)c(-c3cccc(-c4cn5ccccc5n4)c3)cc12", "note": "[Example 141, 2-(4-fluorophenyl)-5-[3-(imidazo[1,2-a]pyridin-2-yl)phenyl]-N-methyl-6-[methyl (methylsulfonyl)amino]-1-benzofuran-3-carboxamide]", "IC50": 3}
{"compound": "CNC(=O)c1c(-c2ccc(F)cc2)oc2cc(N(C)S(C)(=O)=O)c(-c3cccc(-c4nc5cccnc5s4)c3)cc12", "note": "[Example 142, 2-(4-fluorophenyl)-N-methyl-6-[methyl (methylsulfonyl)amino]-5-[3-([1,3]thiazolo[5,4-b]pyridin-2-yl)phenyl]-1-benzofuran-3-carboxamide]", "IC50": 1}
{"compound": "CNC(=O)c1c(-c2ccc(F)cc2)oc2cc(N(C)S(C)(=O)=O)c(-c3cccc(-c4nc5ccc(C)cc5s4)c3)cc12", "note": "[Example 143, 2-(4-fluorophenyl)-N-methyl-5-[3-(6-methyl-1,3-benzothiazol-2-yl)phenyl]-6-[methyl(methylsulfonyl)amino]-1-benzofuran-3-carboxamide]", "IC50": 8}
{"compound": "CNC(=O)c1c(-c2ccc(F)cc2)oc2cc(N(C)S(C)(=O)=O)c(-c3ccc(OC)c(-c4nc5ccccc5s4)c3)cc12", "note": "[Example 144, 5-[3-(1,3-benzothiazol-2-yl)-4-methoxyphenyl]-2-(4-fluorophenyl)-N-methyl-6-[methyl (methylsulfonyl)amino]-1-benzofuran-3-carboxamide]", "IC50": 11}
{"compound": "CNC(=O)c1c(-c2ccc(F)cc2)oc2cc(N(C)S(C)(=O)=O)c(-c3ccc(F)c(-c4nc5ccccc5s4)c3)cc12", "note": "[Example 145, 5-[3-(1,3-benzothiazol-2-yl)-4-fluorophenyl]-2-(4-fluorophenyl)-N-methyl-6-[methyl (methylsulfonyl)amino]-1-benzofuran-3-carboxamide]", "IC50": 6}
{"compound": "CNC(=O)c1c(-c2ccc(F)cc2)oc2cc(N(C)S(C)(=O)=O)c(-c3cccc(-c4nc5c(C)cccc5s4)c3)cc12", "note": "[Example 146, 2-(4-fluorophenyl)-N-methyl-5-[3-(4-methyl-1,3-benzothiazol-2-yl)phenyl]-6-[methyl (methylsulfonyl)amino]-1-benzofuran-3-carboxamide]", "IC50": 15}
{"compound": "CNC(=O)c1c(-c2ccc(F)cc2)oc2cc(N(C)S(C)(=O)=O)c(-c3cccc(-c4nc5ccc(F)cc5s4)c3)cc12", "note": "[Example 147, 5-[3-(6-fluoro-1,3-benzothiazol-2-yl)phenyl]-2-(4-fluorophenyl)-N-methyl-6-[methyl (methylsulfonyl)amino]-1-benzofuran-3-carboxamide]", "IC50": 7}
{"compound": "CNC(=O)c1c(-c2ccc(F)cc2)oc2cc(N(C)S(C)(=O)=O)c(-c3cccc(-c4nc5cc(Cl)ccc5s4)c3)cc12", "note": "[Example 148, 5-[3-(5-chloro-1,3-benzothiazol-2-yl)phenyl]-2-(4-fluorophenyl)-N-methyl-6-[methyl (methylsulfonyl)amino]-1-benzofuran-3-carboxamide]", "IC50": 9}
{"compound": "CNC(=O)c1c(-c2ccc(F)cc2)oc2cc(N(C)S(C)(=O)=O)c(-c3cccc(-c4nc5cc(C(F)(F)F)ccc5s4)c3)cc12", "note": "[Example 149, 2-(4-fluorophenyl)-N-methyl-6-[methyl (methylsulfonyl)amino]-5-{3-[5-(trifluoromethyl)-1,3-benzothiazol-2-yl]phenyl}-1-benzofuran-3-carboxamide]", "IC50": 11}
